We go through five compounds from PubChem BioAssay AID1918931 (Molecular Pharmacology Branch, DTP, NCI, 2023).

This assay deals with 138582-337-R-J1-PDC complex spheroid viability. Nature of the assay: Anticancer human tumor 138582-337-R-J1-PDC patient-derived Merkel cell tumor cell line growth inhibition. Particulars: for viability, T/C: stronger effect = lower value. The procedure, abridged:
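Complex spheroids of tumor cells with HUVEC and human MSCs, exposed to iadademstat combined with other agents. Each agent tested in half-log steps from near clinical Cmax (else 10 microM top), DMSO ≤0.25%.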

The mark [1] stands for this setting: curve of first compound, second compound 0.1 µM.
Setting [2] is: curve of first compound, second compound 0.316 µM.
Where [3] appears, read: curve of first compound, second compound 1 µM.
The mark [4] stands for this setting: curve of first compound, second compound 3.16 µM.
Setting [5] is: curve of first compound, second compound 10 µM.
The mark [6] stands for this setting: second compound 0.1 µM, first compound 0.0316 µM.
The mark [7] stands for this setting: second compound 0.1 µM, first compound 0.1 µM.
The mark [8] stands for this setting: second compound 0.316 µM, first compound 0.0316 µM.
The mark [9] stands for this setting: second compound 0.316 µM, first compound 0.1 µM.
Setting [10] is: second compound 1 µM, first compound 0.0316 µM.
The mark [11] stands for this setting: second compound 1 µM, first compound 0.1 µM.
The mark [12] stands for this setting: second compound 3.16 µM, first compound 0.0316 µM.
Where [13] appears, read: second compound 3.16 µM, first compound 0.1 µM.
The mark [14] stands for this setting: second compound 10 µM, first compound 0.0316 µM.
[15] abbreviates: second compound 10 µM, first compound 0.1 µM.
Setting [16] is: second compound 0.1 µM, first compound 0.316 µM.
Setting [17] is: second compound 0.1 µM, first compound 1 µM.
[18] abbreviates: second compound 0.1 µM, first compound 3.16 µM.
Where [19] appears, read: second compound 0.1 µM, first compound 10 µM.
Setting [20] is: second compound 0.316 µM, first compound 0.316 µM.
Setting [21] is: second compound 0.316 µM, first compound 1 µM.
Where [22] appears, read: second compound 0.316 µM, first compound 3.16 µM.
[23] abbreviates: second compound 0.316 µM, first compound 10 µM.
[24] abbreviates: second compound 1 µM, first compound 0.316 µM.
Setting [25] is: second compound 1 µM, first compound 1 µM.
Setting [26] is: second compound 1 µM, first compound 3.16 µM.
The mark [27] stands for this setting: second compound 1 µM, first compound 10 µM.
The mark [28] stands for this setting: second compound 3.16 µM, first compound 0.316 µM.
[29] abbreviates: second compound 3.16 µM, first compound 1 µM.
Setting [30] is: second compound 3.16 µM, first compound 3.16 µM.
Setting [31] is: second compound 3.16 µM, first compound 10 µM.
Setting [32] is: second compound 10 µM, first compound 0.316 µM.
Setting [33] is: second compound 10 µM, first compound 1 µM.
The mark [34] stands for this setting: second compound 10 µM, first compound 3.16 µM.
Where [35] appears, read: second compound 10 µM, first compound 10 µM.

Each structure is given as a SMILES string. Several values for one entry are separate records, joined by “and”; a condition that tells them apart may be missing. Equal values may be shown once.
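For viability, T/C in this document: 100% = DMSO vehicle control viability.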

Consider `NC1CC1c1ccc(-c2cccc(O)c2)cc1` (centres undefined), for which, under “compound 0.1 µM”, the viability, T/C (usually the result in the treated group divided by that in the control group, in per cent) is 75.3%. Also, for the setting “compound alone, run of 02/01/2022”, the IC50 (usually the concentration that inhibits the measured activity by half) is more than 10 µM.
Regarding `CC(C)CC(NC(=O)CNC(=O)c1cc(Cl)ccc1Cl)B1OC(=O)CC(CC(=O)O)(C(=O)O)O1` (centres undefined) + NC1CCC(NC2CC2c2ccccc2)CC1, the IC50 is, setting by setting: under setting [1], 0.00889 µM; under setting [2], 0.00897 µM; under setting [3], 0.01 µM; under setting [4], 0.00803 µM; under setting [5], 0.00849 µM. Besides, the viability, T/C (second compound 0.1 µM, first compound 0.000316 µM) was 101%; the viability, T/C (second compound 0.1 µM, first compound 0.001 µM) is 129%; the viability, T/C (second compound 0.1 µM, first compound 0.00316 µM) is 124%; the viability, T/C (second compound 0.1 µM, first compound 0.01 µM) is 42.3%; the viability, T/C under setting [6] is 6.66%; the viability, T/C under setting [7] is 0.46%. The viability, T/C (second compound 0.316 µM, first compound 0.000316 µM) was 109%; the viability, T/C (second compound 0.316 µM, first compound 0.001 µM) is 129%; the viability, T/C (second compound 0.316 µM, first compound 0.00316 µM) was 115%; the viability, T/C (second compound 0.316 µM, first compound 0.01 µM) was 42.9%; the viability, T/C under setting [8] is 11.4%; the viability, T/C under setting [9] was 0.49%. In addition, the viability, T/C by setting is: (second compound 1 µM, first compound 0.000316 µM) 94.4%; (second compound 1 µM, first compound 0.001 µM) 115%; (second compound 1 µM, first compound 0.00316 µM) 120%; (second compound 1 µM, first compound 0.01 µM) 50.1%; under setting [10], 7.89%; under setting [11], 0.25%. Moreover, the viability, T/C by setting is: (second compound 3.16 µM, first compound 0.000316 µM) 104%; (second compound 3.16 µM, first compound 0.001 µM) 98.8%; (second compound 3.16 µM, first compound 0.00316 µM) 112%; (second compound 3.16 µM, first compound 0.01 µM) 37.1%; under setting [12], 9.88%; under setting [13], 0.47%. Also, the viability, T/C was 89.8% (second compound 10 µM, first compound 0.000316 µM); 105% (second compound 10 µM, first compound 0.001 µM); 101% (second compound 10 µM, first compound 0.00316 µM); 42% (second compound 10 µM, first compound 0.01 µM); 7.38% under setting [14]; 0.96% under setting [15].
For the compound `O=C(c1cc(Cc2n[nH]c(=O)c3ccccc23)ccc1F)N1CCN(C(=O)C2CC2)CC1` + NC1CCC(NC2CC2c2ccccc2)CC1, the IC50 is more than 10 µM under setting [1]; more than 10 µM under setting [2]; more than 10 µM under setting [3]; more than 10 µM under setting [4]; more than 10 µM under setting [5]. The viability, T/C by setting is: under setting [6], 102%; under setting [7], 91.2%; under setting [16], 86.7%; under setting [17], 92.7%; under setting [18], 84.3%; under setting [19], 95.7%. The viability, T/C runs as follows: under setting [8], 99.6%; under setting [9], 99.9%; under setting [20], 88.1%; under setting [21], 85.8%; under setting [22], 80.1%; under setting [23], 103%. In addition, the viability, T/C runs as follows: under setting [10], 102%; under setting [11], 98.1%; under setting [24], 92.5%; under setting [25], 81.1%; under setting [26], 79%; under setting [27], 104%. Besides, the viability, T/C was 83.8% under setting [12]; 98.3% under setting [13]; 113% under setting [28]; 76.5% under setting [29]; 86.7% under setting [30]; 75.7% under setting [31]. Moreover, the viability, T/C is 78.5% under setting [14]; 104% under setting [15]; 77.7% under setting [32]; 74.1% under setting [33]; 79.6% under setting [34]; 63.7% under setting [35].
Consider `COc1ccc([C@@H](O)c2cc(-c3ncnc4cc(N5CCOCC5)ccc34)c(F)cc2Cl)nn1`, for which the viability, T/C reads like this: (compound 0.0316 µM) 92.5% and 76.9%; (compound 0.1 µM) 79.5% and 91.7%; (compound 0.316 µM) 64.9% and 66.6%; (compound 1 µM) 50.7% and 71.1%; (compound 3.16 µM) 45.5% and 46%; (compound 10 µM) 27.3% and 20.6%. Besides, the IC50 (curve of compound) was 1.34 µM and 2.68 µM.
For the compound `CC1COCCN1c1cc(C2(S(C)(=N)=O)CC2)nc(-c2ccnc3[nH]ccc23)n1` (centres undefined) + NC1CC1c1ccc(-c2cccc(O)c2)cc1, the IC50 was found to be 4.58 µM under setting [1]; 3.02 µM under setting [2]; 5.05 µM under setting [3]; 3.85 µM under setting [4]; 4.24 µM under setting [5]. The viability, T/C reads like this: under setting [6], 74.1%; under setting [7], 78%; under setting [16], 70.3%; under setting [17], 68.6%; under setting [18], 54.2%; under setting [19], 37.6%. In addition, the viability, T/C is, setting by setting: under setting [8], 64.6%; under setting [9], 79%; under setting [20], 75.8%; under setting [21], 68%; under setting [22], 49.4%; under setting [23], 35.9%. Further, the viability, T/C is 72% under setting [10]; 66.1% under setting [11]; 62.6% under setting [24]; 69.4% under setting [25]; 54% under setting [26]; 40.8% under setting [27]. The viability, T/C is, setting by setting: under setting [12], 81.2%; under setting [13], 76.3%; under setting [28], 78.8%; under setting [29], 66.2%; under setting [30], 54%; under setting [31], 32.6%. Besides, the viability, T/C reads like this: under setting [14], 89.9%; under setting [15], 87.6%; under setting [32], 95.5%; under setting [33], 80.8%; under setting [34], 53.3%; under setting [35], 41.6%.
